Measured values: PMC7523345 (Investigational new drugs, 2018)
“Also recorded” adds a separate entry of the source.

Assay: Phase I dose escalation study: safety, tolerability, DLT and MTD
Format: in vivo

Compound: Cc1cccc2c1NC(=O)[C@@H](NC(=O)[C@H](CCC(F)(F)F)[C@H](CCC(F)(F)F)C(N)=O)N=C2c1cccc(F)c1 [BMS-986115]
- Vision blurred (drug related AE, all grades) (Arm B BIW 8 mg (N = 8)): 1 (13) n (%)
- Vomiting (drug related AE, Grade 3 and 4) (Arm B BIW 8 mg (N = 8)): 0 n (%)
- Vomiting (drug related AE, all grades) (Arm B BIW 8 mg (N = 8)): 4 (50) n (%)
- Weight decreased (drug related AE, all grades) (Arm B BIW 8 mg (N = 8)): 0 n (%)
- No. of patients with DLTs (Arm B BIW 8 mg, 6 DLT evaluable patients): 2
- Abdominal distension (drug related AE, all grades) (Arm B BIW Total (N = 12)): 1 (8) n (%)
- Abdominal pain (drug related AE, Grade 3 and 4) (Arm B BIW Total (N = 12)): 0 n (%)
- Abdominal pain (drug related AE, all grades) (Arm B BIW Total (N = 12)): 1 (8) n (%)
- Blood creatinine increased (drug related AE, all grades) (Arm B BIW Total (N = 12)): 1 (8) n (%)
- Colitis (drug related AE, Grade 3 and 4) (Arm B BIW Total (N = 12)): 0 n (%)
- Cough (drug related AE, Grade 3 and 4) (Arm B BIW Total (N = 12)): 0 n (%)
- Cough (drug related AE, all grades) (Arm B BIW Total (N = 12)): 1 (8) n (%)
- Decreased Appetite (drug related AE, Grade 3 and 4) (Arm B BIW Total (N = 12)): 1 (8) n (%)
- Decreased Appetite (drug related AE, all grades) (Arm B BIW Total (N = 12)): 5 (42) n (%)
- Dehydration (drug related AE, Grade 3 and 4) (Arm B BIW Total (N = 12)): 1 (8) n (%)
- Dehydration (drug related AE, all grades) (Arm B BIW Total (N = 12)): 2 (17) n (%)
- Dermatitis acneiform (drug related AE, all grades) (Arm B BIW Total (N = 12)): 0 n (%)
- Diarrhoea (drug related AE, Grade 3 and 4) (Arm B BIW Total (N = 12)): 3 (25) n (%)
- Diarrhoea (drug related AE, all grades) (Arm B BIW Total (N = 12)): 8 (67) n (%)
- Dry mouth (drug related AE, all grades) (Arm B BIW Total (N = 12)): 1 (8) n (%)
- Dry skin (drug related AE, all grades) (Arm B BIW Total (N = 12)): 2 (17) n (%)
- Dysgeusia (drug related AE, all grades) (Arm B BIW Total (N = 12)): 2 (17) n (%)
- Dyspepsia (drug related AE, all grades) (Arm B BIW Total (N = 12)): 1 (8) n (%)
- Dysphonia (drug related AE, all grades) (Arm B BIW Total (N = 12)): 1 (8) n (%)
- Fatigue (drug related AE, Grade 3 and 4) (Arm B BIW Total (N = 12)): 0 n (%)
- Fatigue (drug related AE, all grades) (Arm B BIW Total (N = 12)): 6 (50) n (%)
- Flatulence (drug related AE, all grades) (Arm B BIW Total (N = 12)): 3 (25) n (%)
- Hypocalcaemia (drug related AE, Grade 3 and 4) (Arm B BIW Total (N = 12)): 1 (8) n (%)
- Hypocalcaemia (drug related AE, all grades) (Arm B BIW Total (N = 12)): 1 (8) n (%)
- Hypokalaemia (drug related AE, Grade 3 and 4) (Arm B BIW Total (N = 12)): 0 n (%)
- Hypokalaemia (drug related AE, all grades) (Arm B BIW Total (N = 12)): 3 (25) n (%)
- Hyponatraemia (drug related AE, Grade 3 and 4) (Arm B BIW Total (N = 12)): 1 (8) n (%)
- Hyponatraemia (drug related AE, all grades) (Arm B BIW Total (N = 12)): 1 (8) n (%)
- Hypophosphataemia (drug related AE, Grade 3 and 4) (Arm B BIW Total (N = 12)): 6 (50) n (%)
- Hypophosphataemia (drug related AE, all grades) (Arm B BIW Total (N = 12)): 7 (58) n (%)
- Ileus (drug related AE, Grade 3 and 4) (Arm B BIW Total (N = 12)): 0 n (%)
- Increased upper airway secretion (drug related AE, all grades) (Arm B BIW Total (N = 12)): 3 (25) n (%)
- Laryngeal pain (drug related AE, all grades) (Arm B BIW Total (N = 12)): 0 n (%)
- Leucocytosis (drug related AE, Grade 3 and 4) (Arm B BIW Total (N = 12)): 1 (8) n (%)
- Mouth ulceration (drug related AE, all grades) (Arm B BIW Total (N = 12)): 1 (8) n (%)
- Nausea (drug related AE, Grade 3 and 4) (Arm B BIW Total (N = 12)): 1 (8) n (%)
- Nausea (drug related AE, all grades) (Arm B BIW Total (N = 12)): 7 (58) n (%)
- Pruritus (drug related AE, Grade 3 and 4) (Arm B BIW Total (N = 12)): 0 n (%)
- Pruritus (drug related AE, all grades) (Arm B BIW Total (N = 12)): 3 (25) n (%)
- Pulmonary embolism (drug related AE, Grade 3 and 4) (Arm B BIW Total (N = 12)): 0 n (%)
- Rash (drug related AE, all grades) (Arm B BIW Total (N = 12)): 3 (25) n (%)
- Rash maculopapular (drug related AE, all grades) (Arm B BIW Total (N = 12)): 3 (25) n (%)
- Sinusitis (drug related AE, all grades) (Arm B BIW Total (N = 12)): 0 n (%)
- Urticaria (drug related AE, Grade 3 and 4) (Arm B BIW Total (N = 12)): 0 n (%)
- Vision blurred (drug related AE, all grades) (Arm B BIW Total (N = 12)): 1 (8) n (%)
- Vomiting (drug related AE, Grade 3 and 4) (Arm B BIW Total (N = 12)): 0 n (%)
- Vomiting (drug related AE, all grades) (Arm B BIW Total (N = 12)): 4 (33) n (%)
- Weight decreased (drug related AE, all grades) (Arm B BIW Total (N = 12)): 0 n (%)
- Patients with dose limiting toxicities (Arm B BIW, all dose levels): 2 patients
- Treatment-related SAEs, description (Arm B BIW, one line per subject): Gr 3 diarrhoea; also recorded: Gr 3 nausea, dehydration and decreased appetite
- Maximum Tolerated Dose (MTD) (Arm B, twice weekly (BIW) oral dosing): not established
- Treatment-related deaths (all 36 patients): no treatment-related deaths
- Subjects who discontinued due to treatment-related AEs (all 36 subjects): 5 subjects
- Subjects who discontinued treatment due to AEs (all 36 subjects): 25%
- Subjects with treatment-related SAEs (all 36 subjects): 22%
- Subjects with SAEs (all 36 subjects, overall): 50%
- Hypokalaemia, treatment-related Gr 3 or 4 AE (all patients): 11%
- Hyponatraemia, treatment-related Gr 3 or 4 AE (all patients): 6%
- Nausea, treatment-related Gr 3 or 4 AE (all patients): 11%
- Decreased appetite, treatment related AE (all patients, all grades): 36%
- Diarrhoea, treatment related AE (all patients, all grades): 72%
- Hypokalaemia, treatment related AE (all patients, all grades): 28%
- Hypophosphataemia, treatment related AE (all patients, all grades): 64%
- Nausea, treatment related AE (all patients, all grades): 61%
- Rash, treatment related AE (all patients, all grades): 31%
- Diarrhoea, AE regardless of causality (all treated subjects): 72%
